Assay results published in US10280179B2, “Spiroquinoxaline derivatives as inhibitors of non-apoptotic regulated cell-death” (Helmholtz Zentrum Munchen—Deutches Forschungszentrum Fur …, priority 2013, dated 2019).
Like-named read-outs stand apart in the source and are kept apart here.

Tests used:
[1] = test system: mouse hippocampal cell line (Ht22); assay: Inhibition of glutamate-induced non-apoptotic cell death (Example B.2); format: cell-based; settings: HT-22, Ht22 cells
Outline: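 Ht22 cells (2,000/well, DMEM/10% FBS) seeded together with 5 mM glutamate and compound (0.5 pM to 100 μM, triplicate), incubated 72 h at 37 °C/5% CO2. Cell survival then quantified; glutamate alone as negative control, alpha-tocopherol as positive control.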

Pfa1 cells = assay: Inhibition of non-apoptotic cell death after tamoxifen-induced GPx4 knockout in a recombinant cell line (Example B.4); format: cell-based; settings: Mus musculus, read-out: Pfa1/TAM IC50
Outline: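 Immortalised murine fibroblasts with tamoxifen-inducible CreERT2 for ablation of both GPx4 copies (Pfa1 cells) received tamoxifen on day 0 together with test compound. Cell survival was measured by AlamarBlue after 72 hours.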

C57BL/6 mice [2] = assay: Kidney ischemia-reperfusion injury animal model (Example C.2); format: in vivo, mouse; settings: kidney IRI, compared to vehicle control, FIG. 3
Method: FIG. 3: Efficacy of a compound of the invention in an animal model of kidney IRI.
Briefly, to test such utility of compounds disclosed herein, ischemia is induced in the kidney of 6-8 week old C57BL/6 mice by interruption of the blood supply to the kidney via reversible clipping of the Arteria renalis for 30 min, followed by reperfusion for a period of 24 h. Mice are treated with compound (or vehicle control) generally as described in Example C.1 at 1 hour prior to and four hours after abdominal closure and once daily over a period of 14 days. Markers to be investigated for IRI of kidney include reduction of creatinine levels in the serum along with histopathological analysis.

SH-SY5Y cells = assay: TNF-alpha-induced apoptosis, specificity for non-apoptotic cell death (Example B.3); format: cell-based, human; settings: compound 1 μM, TNF-alpha 10 ng/mL, FIG. 1
Method: SH-SY5Y cells were propagated and seeded in 96-well plates, together with compound N-1, N-2, N-10 of Table 1-N (FIG. 1(a)), compound O/S-6 or O/S-3 of Table 1-O/S (FIG. 1(b)), or compound C-12, C-91, or C-205 of Table 1-C (FIG. 1(c)) (each 1 μM) and TNF-alpha was added (final concentration: 10 ng/mL) to induce apoptosis. The apoptosis and pan-caspase inhibitor z-vad (final concentration: 50 μM) and the necroptosis inhibitor Necrostatin-1 (Nec-1; final concentration: 5 μM) were used for comparison. Control wells were established with vehicle only (DMSO), with and without treatment with TNF-alpha to induce apoptosis. Cells were incubated, and cell survival was detected and quantified. Percentage cell survival after TNF-alpha-induced apoptosis is shown (error bars indicate standard deviation (SD)).
Briefly, SH-SY5Y cells were propagated and seeded in 96-well plates, together with the compound to be tested (1 μM), generally as described in Example B.1, except they were seeded at 1,000 cell/well and instead of BSO, TNF-alpha (Invitrogen) was added to a final concentration of 10 ng/mL to induce apoptosis. The apoptosis and pan-caspase inhibitor Z-VAD-fmk (Enzo Life Science; final concentration 50 μM) and the necroptosis inhibitor Necrostatin-1 (Nec-1; Enzo Life Science; final concentration 5 μM) were used for comparison. Control wells were established with vehicle only (DMSO), with and without treatment with TNF-alpha to induce apoptosis. Cells were incubated, and cell survival was detected and quantified as described in Example B.1.

C57BL/6 mice [3] = assay: Liver ischemia-reperfusion injury animal model (Example C.1); format: in vivo, mouse; settings: liver IRI (90 min ischemia, 24 h reperfusion), single i.p. dose 10 mg/Kg, compared to vehicle control
Method: FIG. 2: Efficacy of a compound of the invention in an animal model of liver IRI. […] The “Sham” bar represents the data from control animals that were treated to the same protocol but without atraumatic clipping. Errors shown are SEM. Significant differences are seen between IRI+vehicle compared to IRI+Cmpd, as well as between IRI+vehicle compared to Sham+vehicle.
Briefly, to test such utility of compounds disclosed herein, ischemia is induced in the liver of 6-8 week old C57BL/6 mice (Charles River) by midline laparotomy whereby the blood supply to the left and median lobes of the liver is interrupted via atraumatic clipping for 90 min, followed by reperfusion for a period of 24 h. After reperfusion, but prior to final abdominal closure, animals are treated with a single i.p. dose of the compound to be tested (10 mg/Kg), or with vehicle (DMSO) as negative control. Markers to be investigated for IRI of liver include liver parameters from serum (ALT/GPT, AST/GOT, Bilirubin, Urea), histopathological analysis and rtPCR of inflammatory and non-apoptotic cell death markers (such as TNF-alpha and INF-gamma). […] The “Sham” bar represents the data from control animals that were treated to the same protocol but without atraumatic clipping.

[4] = Cellular toxicity, same assay as Example B.4 without TAM (Example B.5); format: cell-based; settings: mouse; Pfa1 cells without TAM; read-out: TC50 (the source's name)
Text: Cellular Toxicity of Compounds of the Invention
An estimate of the toxicity for compounds of the invention was obtained by using the same assay as described in Example B.4, but without the addition of TAM. […] Such TC50 values obtained for certain compounds disclosed herein, together with an approximate therapeutic window (estimated by dividing each TC50 by the corresponding IC50 determined from example B.4) are shown in Table 3.

Clc1cccc(CNC2=Nc3ccccc3NC23CCNCC3)c1 [N-2]
IC50 ([1]; glutamate 5 mM, 72 hours, cell survival, read-out: Ht22/GLU (Example B.2) IC50): ~0.01 µM
IC50 ([1]; glutamate-induced cell death, read-out: Ht22/GLU): < 0.2 µM
IC50 (Pfa1 cells): < 0.02 µM
survival of mice suffering kidney-ischemic reperfusion injury (C57BL/6 mice [2]; dose 1 mg/kg): Improved survival
survival of mice suffering kidney-ischemic reperfusion injury (C57BL/6 mice [2]; dose 10 mg/kg): Improved survival
Percentage cell survival after TNF-alpha-induced apoptosis (SH-SY5Y cells): Non-inhibition of apoptotic cell-death
serum marker for liver cell damage GPT (C57BL/6 mice [3]; FIG. 2(a)): significant reduction
serum marker for liver cell damage GOT (C57BL/6 mice [3]; FIG. 2(b)): significant reduction
CC50 [4]: 5 to 10 µM
